# From patent US20240295560A1, “PANCREATIC CANCER DIAGNOSIS ASSISTANCE METHOD AND PHARMACEUTICAL COMPOUND FOR TREATING PANCREATIC CANCER” (TOKYO METROPOLITAN GERIATRIC HOSPITAL AND INSTITUTE OF …, priority 2020, published 2024)
# Tests used:
# [1] = tested on: GM2 expression in MIA PaCa-2 cells; assay: GM2 expression and cell clusters in three-dimensional culture with AMP-dNM or MAP kinase inhibitor; assay type: cell-based
# Method: MIA PaCa-2 cells were cultured on ultra-low attachment plates at a concentration of 1.0×10^4 cells/well (24-well plate: Corning) for 7 days. Cell clusters were obtained. Therefore, the number of GM2-positive cells increased in three-dimensional culture. In this example, the effects of AMP-dNM or MAP kinase inhibitor on GM2 expression were examined. Under the same conditions as in Example 5, MIA PaCa-2 cells were three-dimensionally cultured, and the expression of GM2 was measured by adding AMP-dNM (10 μM) which is an inhibitor of glycolipid synthesis, or PD0325901 (1 μM) which is a MAP kinase inhibitor.
# [2] = tested on: MIA PaCa-2 cells (GM2-positive vs GM2-negative); assay: sensitivity of GM2-expressing cells to anticancer drugs, proliferation rate by ATP assay; assay type: cell-based; conditions: drug at 10 μM or 100 μM, incubated 3 days, ATP assay (FIG. 6)
# Method: In this example, the sensitivity of GM2-expressing cells to anticancer drugs (gemcitabine, fluorouracil [5-FU], and Abraxane) were examined.
# MIA PaCa-2 cells (3.0×10^3 cells/well) were seeded in 96-well plates. After 1 day, each anticancer drug was added thereto at a concentration of 10 μM or 100 μM. The cells were incubated for 3 days, and the proliferation rate of the cells was measured by ATP assay.
# [3] = AMP-dNM 10 μM, three-dimensional culture of MIA PaCa-2 cells (FIG. 8(B))
structure (smiles),measurement,setting,value
O=C(NOC[C@H](O)CO)c1ccc(F)c(F)c1Nc1ccc(I)cc1F [PD0325901],GM2 expression,"[1]; PD0325901 1 μM, three-dimensional culture of MIA PaCa-2 cells (FIG. 8(C))",decreased
same,size of cell clusters,"[1]; PD0325901 1 μM, three-dimensional culture of MIA PaCa-2 cells (FIG. 8(D))",clearly reduced
Nc1ccn([C@@H]2O[C@H](CO)[C@@H](O)C2(F)F)c(=O)n1 [gemcitabine],proliferation rate of GM2-positive cells compared with GM2-negative cells,[2],effective against GM2-positive cells
"OC[C@@H]1[C@@H](O)[C@H](O)[C@@H](O)CN1CCCCCOCC12CC3CC(CC(C3)C1)C2 [AMP-dNM, N-(5′-adamantane-1′-yl-methoxy)-pentyl-1-deoxynojirimycin]",GM2 expression,"[1]; AMP-dNM 10 μM, three-dimensional culture of MIA PaCa-2 cells (FIG. 8(A))",decreased
same,microvilli in the cell clusters,[1]; [3],hardly observed
same,vacuoles in the cell clusters,[1]; [3],conspicuously observed
"O=c1[nH]cc(F)c(=O)[nH]1 [fluorouracil [5-FU], fluorouracil]",proliferation rate of GM2-positive cells compared with GM2-negative cells,[2],effective against GM2-positive cells
